# Tests used:
# [1] = system: E. coli MG1655; assay: MIC, broth microdilution (CLSI) versus planktonic bacteria; format: cell-based, Escherichia coli; settings: Escherichia coli, MG1655, read-out: MIC, Ec MG1655 WT
# [2] = system: Haemophilus influenzae ATCC 49247; assay: as above; format: cell-based; settings: ATCC49247; Haemophilus influenzae ATCC 49247; 16-20 h; mode of three independent experiments; read-out: MIC, Hi ATCC 49247
# [3] = system: Acinetobacter baumannii NCTC 13420; assay: as above; format: cell-based; settings: NCTC13420; Acinetobacter baumannii NCTC 13420; 16-20 h; mode of three independent experiments; read-out: MIC, Ab NCTC 13420
# [4] = system: Enterobacter cloacae NCTC 13406; assay: as above; format: cell-based; settings: NCTC13406; Enterobacter cloacae NCTC 13406; 16-20 h; mode of three independent experiments; read-out: MIC, Ecl NCTC 13406
# [5] = system: Escherichia coli ATCC 25922; assay: as above; format: cell-based; settings: ATCC25922; Escherichia coli ATCC 25922; 16-20 h; mode of three independent experiments; read-out: MIC, Ec ATCC 25922
# [6] = system: E. coli NCTC 13476; assay: as above; format: cell-based; settings: NCTC13476; Escherichia coli NCTC 13476; 16-20 h; mode of three independent experiments; read-out: MIC, Ec NCTC 13476
# [7] = system: human hepatic cell line (HepG2 ATCC HB-8065); assay: Human cell viability assay (CellTiter-Glo); settings: Homo sapiens, HepG2, 24 h, read-out: IC50 (μg/mL) HepG2
# [8] = system: Staphylococcus aureus ATCC 29213; assay: MIC, broth microdilution (CLSI) versus planktonic bacteria; format: cell-based; settings: ATCC29213; Staphylococcus aureus ATCC 29213; 16-20 h; mode of three independent experiments; read-out: MIC, Sa ATCC 29213
# [9] = system: Pseudomonas aeruginosa ATCC 27853; assay: as above; format: cell-based; settings: ATCC27853; Pseudomonas aeruginosa ATCC 27853; 16-20 h; mode of three independent experiments; read-out: MIC, Pa ATCC 27853
# [10] = system: E. coli ATCC BAA-2452; assay: as above; format: cell-based; settings: Escherichia coli ATCC BAA-2452; 16-20 h; mode of three independent experiments; read-out: MIC, Ec ATCC BAA 2452
# [11] = system: E. coli MG1655 S83L; format: cell-based, Escherichia coli; settings: compared to the isogenic parent strain E. coli MG1655; S83L mutation on DNA gyrase subunit GyrA
# [12] = system: Streptococcus pneumoniae ATCC 49619; assay: MIC, broth microdilution (CLSI) versus planktonic bacteria; format: cell-based; settings: ATCC49619; Streptococcus pneumoniae ATCC 49619; 16-20 h; mode of three independent experiments; read-out: MIC, Sp ATCC 49619
# [13] = system: E. coli MG1655 D87G; format: cell-based, Escherichia coli; settings: compared to the isogenic parent strain E. coli MG1655; D87G mutation on DNA gyrase subunit GyrA
# [14] = system: Acinetobacter baumannii ATCC 19606; assay: MIC, broth microdilution (CLSI) versus planktonic bacteria; format: cell-based; settings: ATCC19606; Acinetobacter baumannii ATCC 19606; 16-20 h; mode of three independent experiments; read-out: MIC, Ab ATCC 19606
SMILES,MIC [1] [µg/mL],MIC [2] [µg/mL],MIC [3] [µg/mL],MIC [4] [µg/mL],MIC [5] [µg/mL],MIC [6] [µg/mL],IC50 [7] [µg/mL],MIC [8] [µg/mL],MIC [9] [µg/mL],MIC [10] [µg/mL],"Fold increase in MIC, E. coli MG1655 S83L [11] [fold]",MIC [12] [µg/mL],"Fold increase in MIC, E. coli MG1655 D87G [13] [fold]",MIC [14] [µg/mL]
"NCCOc1ccc2ccc(=O)n(CCN[C@@H]3CC[C@@H]4[C@@H](C3)OC(=O)N4c3ccc4c(n3)NC(=O)CO4)c2c1 [Compound 23, 1-(2-{[(3aR,6R,7aR)-2-oxo-3-{3-oxo-2H,3H,4H-pyrido[3,2-b][1,4]oxazin-6-yl}-octahydro-1,3-benzoxazol-6-yl]amino}ethyl)-7-(2-aminoethoxy)-1,2-dihydroquinolin-2-one]",1 to 10,> 100,10 to 100,> 100,< 1,10 to 100,> 100,< 1,1 to 10,1 to 10,0.5,1 to 10,0.5,–
"O=C1COc2cnc(N3C(=O)O[C@@H]4C[C@H](NCCn5c(=O)cnc6cc(F)c(F)cc65)CC[C@H]43)nc2N1 [Compound 38, 1-(2-{[(3aR,6R,7aR)-2-oxo-3-{7-oxo-6H,7H,8H-pyrimido[5,4-b][1,4]oxazin-2-yl}-octahydro-1,3-benzoxazol-6-yl]amino}ethyl)-6,7-difluoro-1,2-dihydroquinoxalin-2-one]",< 1,< 1,1 to 10,< 1,< 1,1 to 10,10 to 100,< 1,1 to 10,1 to 10,2,< 1,–,1 to 10
"N#Cc1cccc(-c2cccc(CN[C@H]3CC[C@H]4[C@H](C3)OC(=O)N4c3ccc4c(n3)NC(=O)CO4)c2)n1 [Compound 57, 6-[3-({[(3aS,6S,7aS)-2-oxo-3-{3-oxo-2H,3H,4H-pyrido[3,2-b][1,4]oxazin-6-yl}-octahydro-1,3-benzoxazol-6-yl]amino}methyl)phenyl]pyridine-2-carbonitrile]",< 1,< 1,< 1,1 to 10,< 1,1 to 10,–,< 1,–,1 to 10,1,< 1,1,< 1
"O=C1COc2ccc(N3C(=O)O[C@@H]4C[C@H](NCCn5c(=O)cnc6cc(F)c(F)cc65)CC[C@H]43)nc2N1 [Compound 70, 1-(2-{[(3aR,6R,7aR)-2-oxo-3-{3-oxo-2H,3H,4H-pyrido[3,2-b][1,4]oxazin-6-yl}-octahydro-1,3-benzoxazol-6-yl]amino}ethyl)-6,7-difluoro-1,2-dihydroquinoxalin-2-one]",< 1,< 1,< 1,< 1,< 1,< 1,10 to 100,< 1,< 1,< 1,2,< 1,4,–
"C=CCOc1ccc2ccc(=O)n(CCN[C@H]3CC[C@H]4[C@H](C3)OC(=O)N4c3ccc4c(n3)NC(=O)CO4)c2c1 [Compound 89, 1-(2-{[(3aS,6S,7aS)-2-oxo-3-{3-oxo-2H,3H,4H-pyrido[3,2-b][1,4]oxazin-6-yl}-octahydro-1,3-benzoxazol-6-yl]amino}ethyl)-7-(prop-2-en-1-yloxy)-1,2-dihydroquinolin-2-one]",–,1 to 10,< 1,1 to 10,< 1,1 to 10,10 to 100,< 1,1 to 10,< 1,–,< 1,–,< 1

# Source: US10487093B2, “Heterocyclic compounds, in particular 2-oxo-4,4,5,5,6,6,7,7-octahydrobenzoxazole derivatives, and their use as antibacterial compounds” (priority 2016, dated 2019)
